The values that follow come from patent US9505781B2, “Compositions comprising thienopyrimidine and thienopyridine compounds and methods of use thereof” (The Regents of the University of Michigan, priority 2013, dated 2016).

Experiment [1] concerns the target T1, menin-MLL-AF9 interaction (Homo sapiens, UniProt O00255).
T1 construct: performed in HEK293 cells transfected with MLL-AF9; endogenous in cells; host or cells: HEK293 cells (transfected with MLL-AF9)
T1 sequence (O00255 1-610): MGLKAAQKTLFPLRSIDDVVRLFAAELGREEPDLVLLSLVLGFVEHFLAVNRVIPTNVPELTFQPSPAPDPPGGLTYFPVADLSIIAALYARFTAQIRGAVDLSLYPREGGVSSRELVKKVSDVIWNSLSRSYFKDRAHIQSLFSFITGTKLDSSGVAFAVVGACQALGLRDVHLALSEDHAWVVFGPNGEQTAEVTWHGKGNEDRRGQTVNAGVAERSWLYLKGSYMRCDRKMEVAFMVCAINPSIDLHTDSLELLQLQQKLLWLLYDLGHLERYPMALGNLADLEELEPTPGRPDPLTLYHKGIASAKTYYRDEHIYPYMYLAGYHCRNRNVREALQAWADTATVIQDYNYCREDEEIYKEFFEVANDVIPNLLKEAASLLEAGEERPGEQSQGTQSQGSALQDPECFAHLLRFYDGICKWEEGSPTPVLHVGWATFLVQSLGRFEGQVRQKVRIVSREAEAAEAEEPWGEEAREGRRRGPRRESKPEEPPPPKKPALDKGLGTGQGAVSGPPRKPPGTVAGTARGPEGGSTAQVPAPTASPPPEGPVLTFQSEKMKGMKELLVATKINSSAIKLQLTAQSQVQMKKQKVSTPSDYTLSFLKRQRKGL
In words: Co-Immunoprecipitation (co-IP) in HEK293 cells transfected with MLL-AF9. The format is cell-based. To be noted: HEK293 cells transfected with MLL-AF9, FIG. 2.

Experiment [2] has as its system MLL-AF9 transformed mouse bone marrow cells (BMC). The experiment can be described thus: MTT cell viability assay in transformed BMC. The format is cell-based. To be noted: 72 h incubation, E2H-HLF transformed BMC as negative control, FIG. 3. In general terms: Formazan colour is commonly taken as a measure of viable cells.
In a further experiment the test system is Hoxa9 and Meis 1. In words: qRT-PCR of MLL fusion downstream targets. The format is cell-based. To be noted: qRT-PCR in MLL-AF9 BMC, FIG. 10. The text has this:
FIG. 10. […] B. qRT-PCR performed in MLL-AF9 BMC for Compound 175.
On the technique in general: Quantitative PCR measures a nucleic acid by following its amplification.

Experiment [3] deals with MLL-AF9 BMC. In words: Colony formation assay. The format is cell-based. To be noted: each round 7 days, FIG. 7. The text has this: FIG. 7. […] Each round takes 7 days.
For experiment [4], the system named is human MLL leukemia cell lines. In words: MTT cell viability assay in human leukemia cell lines. In kind it is cell-based. Conditions: 3 days of incubation, FIG. 11.
Another experiment deals with MLL-AF9 leukemia. In words: In vivo efficacy in mice model of MLL-AF9 leukemia. Conditions: once daily i.p. injections of 75 mg/kg dose, FIG. 18. The text has this: FIG. 18. In vivo efficacy studies with compound 108 in mice model of MLL-AF9 leukemia.
The next experiment addresses T2, menin-MLL interaction (Homo sapiens, UniProt O00255).
T2 sequence (O00255 1-610): T1 sequence (O00255 1-610)
The experiment can be described thus: biochemical.

The subject of a further experiment is MLL-AF9 transformed BMC. The experiment can be described thus: Growth curves experiments in transformed BMC. In kind it is cell-based. Conditions: MLL-AF9 BMC vs Hoxa9/Meis1 transformed BMC (negative control), FIG. 5.
Experiment [5] deals with MLL-AF9 BMC. The experiment can be described thus: Differentiation (CD11b expression, cell morphology). Conditions: CD11b expression level and cell morphology, FIG. 9. In kind it is cell-based.
Experiment [6] deals with human MLL leukemia cell lines. The experiment can be described thus: Growth inhibition of human MLL leukemia cell lines. The format is cell-based. Conditions: FIG. 13 A.
Experiment [7] relates to non-MLL leukemia cell lines. In words: Growth inhibition of non-MLL leukemia cell lines. In kind it is cell-based. To be noted: FIG. 13 B.

From the text for menin-MLL interaction: Compounds that inhibit the interaction decrease the fluorescence anisotropy which is being used as a read-out for compound screening and for IC50 determination.

With `CC1(C)CN=C(N2CCN(c3ncnc4sc(CC(F)(F)F)cc34)CC2)S1` [Compound 1, 4-(4-(5,5-dimethyl-4,5-dihydrothiazol-2-yl)piperazin-1-yl)-6-(2,2,2-trifluoroethyl)thieno[2,3-d]pyrimidine], the “inhibition of the menin-MLL-AF9 interaction” value in [1] is “inhibition of the menin-MLL-AF9 interaction”. In experiment [2], the inhibition of proliferation entry is listed as “selectively inhibit proliferation of MLL leukemia cells”. The “expression of Hoxa9 and Meis 1” value in the experiment on Hoxa9 and Meis 1 is on record as “downregulate expression of downstream targets of MLL fusion proteins”.

One may read the IC50 as the concentration that gives 50% inhibition. With `FC(F)(F)Cc1cc2c(NC3CCN(Cc4ccccc4)CC3)ncnc2s1` [Compound 108], in experiment [1], the “inhibition of the menin-MLL-AF9 interaction” value is on record as “inhibition of the menin-MLL-AF9 interaction”. Also, in [2], the inhibition of proliferation entry is “selectively inhibit proliferation of MLL leukemia cells”. In addition, the morphology of colonies result with MLL-AF9 BMC [3] is recorded as “changes morphology of colonies”. Further, the “expression of Hoxa9 and Meis 1” value in the experiment with Hoxa9 and Meis 1 is recorded as “downregulate expression of downstream targets of MLL fusion proteins”. Also, in experiment [4], the growth inhibition entry is “selectively inhibit growth of human MLL leukemia cell lines”. Moreover, the “survival of leukemic mice” value in the experiment with MLL-AF9 leukemia was “Increase in survival of leukemic mice”. Further, at menin-MLL interaction, the IC50 was in the range of 100 to 500 nM.

Consider `N#Cc1cc2cc(CN3CCC(Nc4ncnc5sc(CC(F)(F)F)cc45)CC3)ccc2[nH]1` [Compound 175, 5-((4-((6-(2,2,2-trifluoroethyl)thieno[2,3-d]pyrimidin-4-yl)amino)piperidin-1-yl)methyl)-1H-indole-2-carbonitrile], for which the “inhibition of the menin-MLL-AF9 interaction” value in experiment [1] was “inhibition of the menin-MLL-AF9 interaction”. For the same molecule, the “selectivity in growth curves” value in the experiment with MLL-AF9 transformed BMC is given as “great selectivity of the compound towards MLL fusion protein transformed cells”. Further, the differentiation entry in the experiment on MLL-AF9 BMC [5] is “Differentiation induced”. Further, the “expression of Hoxa9 and Meis 1” value with Hoxa9 and Meis 1 was “downregulate expression of downstream targets of MLL fusion proteins”. The results for the growth inhibition entry in [6] and in experiment [7] were “selectively inhibits growth of human MLL leukemia cell lines” and “limited effect”, respectively. The molecule further had an IC50 on menin-MLL interaction of less than 100 nM.
